The test system of the assay is CEM cells HIV-1 protection, formazan growth assay. Put plainly: NCI AIDS Antiviral Assay. The settings on record: for IC50: measured here: growth of uninfected CEM cells. In outline:
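Category rules: moderately active means at least 50% protection on retest, and confirmed active means 100% protection reproducibly. The underlying data came from a formazan growth assay in HIV-1-infected CEM cells.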

The structures appear in SMILES notation. Where “and” joins values, the source holds several entries; their conditions need not be identical. Equal values may be shown once. Calls of active or inactive are those of the source.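 How the source made its calls: active means compounds giving half or more protection of infected cells from virus-caused growth loss, again on retest; inactive means the rest.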

The EC50 is the concentration giving half of the maximal effect. A word on the IC50: it is the concentration that gives 50% inhibition. `c1cc2c(cc1[C@@H]1OC[C@@H]3[C@H]1CO[C@H]3c1ccc3c(c1)OCO3)OCO2`: the EC50 was greater than 200 µM and the IC50 is 79.4 µM. The matching figures for `CC(C)=CCNc1ncnc2c1ncn2CCC#N`: greater than 200 µM and greater than 200 µM.

For `Nc1ncnc2c1ncn2C1OC(COP(=O)(O)CP(=O)(O)O)C(O)C1O` (stereo not drawn), the EC50 was greater than 200 µM and the half-inhibitory concentration (IC50) is greater than 200 µM. `CN(C)CCCn1c(-c2ccc(Br)cc2)csc1=Nc1ccccc1`: the EC50 was greater than 200 µM and the IC50 came out at 9.77 µM.

Regarding `N#CC1(C#N)C(c2ccccc2)NC23CCCCC2C1(C#N)C(=O)N3` (stereo not drawn), the EC50 was greater than 200 µM and the IC50 was determined as 81.3 µM. The matching figures for `Nc1c(S(=O)(=O)c2ccc(Cl)cc2)c2nc3ccccc3nc2n2ccnc12`: 151 µM and greater than 200 µM.

Take `CN1[C@H]2C=CC(=O)[C@]1(Cl)[C@H]1C(=O)N(c3ccccc3)C(=O)[C@@H]21`: the EC50 was greater than 162 µM and the IC50 turned out to be 3.89 µM. The matching figures for `O=C1CSC(c2ccccc2[N+](=O)[O-])N1c1ccc(-c2ccc(-n3c(-c4ccccc4)nc4ccccc4c3=O)cc2)cc1` (stereo not drawn): greater than 200 µM and 95.5 µM. `CC(C)C(N=C1CC2CCC1(C(=O)Nc1ccccc1O)C2(C)C)c1ccccc1` (stereo not drawn): the EC50 is 20 µM and the IC50 worked out at 32.4 µM. The matching figures for `O=S1(=O)CCC2=CC(C(F)(F)F)=CC(C(F)(F)F)=CN21`: greater than 81.3 µM and 0.38 µM.

For the molecule `C=CC(=O)Nc1ccccc1CC(c1c[nH]c2ccccc12)c1c[nH]c2ccccc12`, the EC50 was greater than 36.3 µM and the IC50 was 25.7 µM.

On to `COc1cc2c3c(c1)[nH]c(=S)n3C(=O)C(c1ccccc1)S2` (stereo not drawn), for which the EC50 was greater than 200 µM and the concentration for half-maximal inhibition (IC50) turned out to be 40.7 µM.

With `CN(C)C(=O)ON=C1c2ccccc2-c2ccccc21`, the EC50 is greater than 200 µM and the 50% inhibitory concentration (IC50) is 28.8 µM. On the same counts, the results for `NC1=NS(=O)(=O)N=C(N)C1=NNc1ccc([N+](=O)[O-])cc1` are greater than 794 µM and 126 µM. The matching figures for `NC(N)=Nc1ccccc1SSc1ccccc1N=C(N)N`: 8.13 µM and 52.5 µM. On the same counts, the results for `CC1=CC(=O)N(c2c(C)cccc2Cl)C(C)N1` (stereo not drawn) are greater than 1000 µM and greater than 1000 µM. For `CCCCC(C(=O)C(=O)Nc1ccccc1CC)C(=O)C(C)C` (stereo not drawn), the result was inactive.

As to `CC12CCC3(C1)[C@H](CC2=O)C[C@@H](OC(=O)c1ccccc1)C1C(C)(CO)CCC[C@@]13C` (stereo partly drawn), the EC50 is greater than 44.7 µM and the IC50 was determined as 0.891 µM. With `O=C(O)c1ccccc1SSc1ccccc1C(=O)O`, the EC50 is 112 µM and > 589 µM and > 200 µM; the IC50 is 589 µM and > 589 µM and > 200 µM. In the case of `C[N+](C)(C)CCCCCCCCCC[N+](C)(C)C`, the EC50 was greater than 603 µM and the half-maximal inhibitory concentration (IC50) is greater than 603 µM.

As for `COc1ccc(/C(C#N)=C/c2ccccc2)cc1`, the EC50 was greater than 200 µM and the IC50 came out at 10.7 µM. Consider `COc1c2c(cc3c1[C@@H]1Oc4c(ccc(O)c4CC=C(C)C)[C@@H]1CO3)OC(C)(C)C=C2`, for which the EC50 is 2.24 µM and the IC50 was 23.4 µM. On the same counts, the results for `O=C(NN(C(=O)c1ccc([N+](=O)[O-])cc1)c1ccccc1)c1ccc([N+](=O)[O-])cc1` are greater than 200 µM and 36.3 µM.

In the case of `C=CCNc1nc(C#N)c(N)s1`, the EC50 is greater than 200 µM and the IC50 was greater than 200 µM. As to `COC1CCC(=O)N1CN(C(C)=O)c1ccc(C)cc1` (stereo not drawn), the result was inactive. On to `OC(O)(C(F)(F)F)C(F)(F)F`, for which the EC50 is greater than 200 µM and the IC50 was greater than 200 µM. Regarding `Cc1ccc(-c2n[nH]c(=O)n2NC(=O)c2ccccc2C(=O)O)cc1`, the outcome was inactive. With `CCOC(=O)C(CC(CO)(C(C)=O)C(=O)OCC)C(C)=O` (stereo not drawn), the EC50 was greater than 200 µM and the IC50 came out at 22.4 µM. The matching figures for `O=C1CC2C=CC(O)C(C1)C2` (stereo not drawn): greater than 200 µM and greater than 200 µM. On the same counts, the results for `Cn1ccnc1CCc1ccc(Cl)c(Cl)c1` are greater than 851 µM and 97.7 µM. Consider `CN(C)c1ccc(/C=N/NC2=N/C(=C\c3ccco3)C(=O)N2)cc1`, for which the EC50 was greater than 100 µM and the IC50 was greater than 100 µM. As for `CN(C)c1ccc(/C=c2\sc3nnc(-c4ccco4)n3c2=O)cc1`, the EC50 is greater than 11.2 µM and the IC50 is greater than 11.2 µM. On to `CC(C)(C)C1CCC2(CC1)CO2` (stereo not drawn), for which the EC50 is greater than 200 µM and the IC50 is 195 µM.

Regarding `O=C(O)CN1CCN2CCOCCN(CC1)CCN(CC(=O)O)CC2`, the EC50 is greater than 200 µM and the IC50 was greater than 200 µM. Consider `COc1ccc(C2NC3=C(CCCC3)N2)cc1`, for which the EC50 was greater than 155 µM and the IC50 came out at 26.3 µM. Turning to `COc1cccc(-c2nc(-c3cnccn3)n(Cc3ccccc3)n2)c1`, the EC50 was greater than 200 µM and the IC50 was greater than 200 µM.

For the molecule `COc1ccc(CN2CCCN(/N=C/c3c4c(O)c5c(O)c(C)c6c(c5c3O)C(=O)C(C)(O/C=C/C(OC)C(C)C(OC(C)=O)C(C)C(O)C(C)C(O)C(C)/C=C/C=C(C)C(=O)N4)O6)CC2)cc1` (stereo not drawn), the EC50 was greater than 200 µM and the IC50 came out at 12 µM. In the case of `O=c1c2ccccc2nc(-c2cccc(Cl)c2)n1NC1OC(CO)C(O)C(O)C1O` (stereo not drawn), the outcome was inactive.

For `COC(=O)C(CSSCC(C(=O)NC(Cc1ccccc1)C(=O)NCC(=O)OC(C)(C)C)N1C(=O)CCC1=O)NC(=O)OCc1ccccc1` (stereo not drawn), the EC50 was greater than 200 µM and the IC50 was 20.4 µM. As for `CCOP(=O)(c1ccccc1)C([CH2][Sn]([CH3])([CH3])[Cl])P(=O)(OC(C)C)OC(C)C` (stereo not drawn), the EC50 is greater than 200 µM and the IC50 was found to be 4.47 µM. In the case of `O=C(Nc1cccc2ccccc12)Oc1ccccc1C1CCCCC1`, the outcome was inactive. As to `O=C1c2c(O)cc(O)cc2OC(c2ccc(O)c(O)c2)C1O` (stereo not drawn), the EC50 was greater than 200 µM and the IC50 is greater than 200 µM. In the case of `CC1CNC(=S)SSC(=S)N1` (stereo not drawn), the EC50 is greater than 200 µM and the IC50 was 25.1 µM. The matching figures for `COC(=O)C1(C(=O)OC)Cc2ccc(OC)cc2C2=C1C(=O)c1ccccc1C2=O`: greater than 20 µM and 0.275 µM. The matching figures for `Cc1c(C)c2ccc(OCC(O)COC(C)C)c(C)c2oc1=O` (stereo not drawn): greater than 200 µM and 32.4 µM. On the same counts, the results for `N#Cc1c(N2CCOCC2)ncn(-c2ccccc2)c1=O` are greater than 200 µM and greater than 200 µM.

Regarding `O=c1oc2ccccc2c(O)c1C(c1ccccc1)c1c(O)c2ccccc2oc1=O`, the EC50 was greater than 200 µM and the IC50 came out at 33.1 µM. On to `CC#CC(=O)Nc1ccccc1CC(c1c[nH]c2ccccc12)c1c[nH]c2ccccc12`, for which the EC50 is greater than 35.5 µM and the 50% inhibitory concentration (IC50) is 19.1 µM. On the same counts, the results for `CN1CCN(c2cc3nsnc3c3nsnc23)CC1` are greater than 200 µM and greater than 200 µM. The matching figures for `CC(=O)OCCN1CCOC(O)(c2cccc(C(F)(F)F)c2)C1` (stereo not drawn): greater than 200 µM and 117 µM.

For `CC12CCC(=O)[C@@]1(C)CCCC2=O` (stereo partly drawn), the outcome was inactive. The same measure, in the same setting: in the case of `O=C(CNN1C(=O)CSC1=Nc1cccc2ccccc12)c1cccc2c1Nc1ccccc1S2` it was “inactive”; in that of `CSc1nc2c(nc(N)n2C2OC(CO)C(O)C(O)C2O)c(=O)n1C` (stereo not drawn), “inactive”. As for `CC(=O)Nc1ccc2cc3[nH]c4cc(NC(C)=O)ccc4c3nc2c1`, the EC50 is greater than 200 µM and the half-maximal inhibitory concentration (IC50) was found to be 17.8 µM.

Consider `CC(C)NC(=O)/C=C/C=C/c1ccc(Cl)cc1`, for which the EC50 was greater than 28.8 µM and the concentration for half-maximal inhibition (IC50) was greater than 28.8 µM. On to `COc1nc(N=P(c2ccccc2)(c2ccccc2)c2ccccc2)cc(=O)n1C`, for which the result was inactive.

As for `N#CCN1CCCCCC1`, the EC50 is greater than 200 µM and the IC50 was greater than 200 µM. As to `CCN(CC)C(=S)SC1C(=O)NC(=O)NC1=O`, the EC50 was greater than 200 µM and the IC50 was greater than 200 µM. Consider `O=c1[nH]c2cc(Cl)ccc2c2ccc(Cl)cc12`, for which the EC50 was greater than 200 µM and the half-maximal inhibitory concentration (IC50) is greater than 200 µM. Take `c1ccc(C2=NCCN2)c(C2=NCCN2)c1`: the EC50 is greater than 200 µM and the IC50 is greater than 200 µM. For the molecule `CCOCc1cc(=O)c2c(O)cc3c(c2o1)CCC(C)(C)O3`, the result was inactive.

As for `CCOC(=O)C(CC)c1cc2n(c(=O)c1C#N)CCC21OCCO1` (stereo not drawn), the EC50 was greater than 200 µM and the half-maximal inhibitory concentration (IC50) is greater than 200 µM.

For `O=c1ccn(C2OC(CO)C(O)C2F)c(=O)n1Cc1ccccc1` (stereo not drawn), the EC50 is greater than 200 µM and the half-maximal inhibitory concentration (IC50) is greater than 200 µM. `CCOC(=O)CC(c1ccccc1)C(C)(C(=O)OCC)C(=O)OCC` (stereo not drawn): the result was inactive. `CN(C)CCn1nc2n(c(=O)c1=O)CC(=O)N(C)c1ccc(Cl)cc1-2`: the EC50 is greater than 407 µM and the IC50 is greater than 407 µM. With `CCCN(CC)C(=O)COc1cc2c(O)c3c(O)c(C)c4c(c13)C(=O)C(C)(O/C=C/C(OC)C(C)C(OC(C)=O)C(C)C(O)C(C)C(O)C(C)/C=C/C=C(\C)C(=O)N2)O4` (stereo not drawn), the EC50 is greater than 200 µM and the IC50 was 12.9 µM. On the same counts, the results for `Nc1ccc(/C=C/c2ccc(N=Nc3ccc(/C=C/c4ccc(N=Nc5ccc(/C=C/c6ccc(N=Nc7ccc(/C=C/c8ccc(N)cc8S(=O)(=O)O)c(S(=O)(=O)O)c7)cc6S(=O)(=O)O)c(S(=O)(=O)O)c5)cc4S(=O)(=O)O)c(S(=O)(=O)O)c3)cc2S(=O)(=O)O)c(S(=O)(=O)O)c1` are 1.78 µM and 186 µM.

Turning to `COc1cccc(/C=N/[N-]C(=O)c2ccncc2)c1[O-].[OH3+].[Pd+2]`, the EC50 is greater than 16.6 µM and the half-inhibitory concentration (IC50) was greater than 16.6 µM.

Regarding `OC(CC(O)(C(F)(F)F)C(F)(F)F)c1ccc(C(O)CC(O)(C(F)(F)F)C(F)(F)F)cc1` (stereo not drawn), the EC50 was greater than 200 µM and the IC50 turned out to be 10.2 µM. The matching figures for `CC(CN1NC12CCCC2)N1NC12CCCC2` (stereo not drawn): greater than 200 µM and greater than 200 µM.

Take `Cc1cn([C@H]2C[C@@H]3[C@@H](COC(CCN=[N+]=[N-])N3O)O2)c(=O)[nH]c1=O` (stereo partly drawn): the EC50 is 72.4 µM and the IC50 was greater than 200 µM.

As for `Cc1ccc(/C(C#N)=C/c2ccc3c(c2)OCO3)cc1`, the EC50 is greater than 200 µM and the IC50 came out at 10 µM.
